US8263649B2, “Benzofuran type derivatives, a composition comprising the same for treating or preventing cognitive dysfunction and the use thereof” (Medifron DBT Co., Ltd., priority 2006, dated 2012)

How the values were obtained:
beta amyloid 1-42 = molecular target: T1, beta amyloid 1-42 (Homo sapiens, UniProt P05067); experiment: Inhibition test of beta amyloid aggregation (Thioflavin T fluorescence); assay type: biochemical; conditions: FIG. 1
T1 construct: Synthetic beta amyloid 1-42 (BACHEM); purchased BACHEM; host or cells: synthetic peptide
T1 sequence (P05067 672-713): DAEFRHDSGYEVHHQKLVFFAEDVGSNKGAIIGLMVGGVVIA
Experimental: Synthetic beta amyloid 1-42 (BACHEM) was dissolved in DMSO in order to 250 μm solution and diluted with PBS into 1/10 on fluorescent black plate to induce aggregation. By comparing with inhibition activity of the tanshinone compounds prepared in Example 1 on beta amyloid aggregation, the test sample showing more than 50% inhibition activity at 10 μg/ml was chosen to use and added to react for 1 hour at room temperature. ThT (Thioflavin T) was diluted with 50 mM glycine buffer solution and the diluted solution was added to each well by 150 μl/well. The absorbance was determined by microplate reader (SAFIRE, TECAN) at 450 nm excitation wavelength/480 nm emission wavelength and the inhibition activity of the test sample on beta amyloid aggregation was transformed into IC50.

[1] = system: ICR mouse administrated aggregated beta amyloid 1-42; experiment: AD acute model experiment - passive avoidance test; assay type: in vivo
Experimental: For passive avoidance test, male ICR mouse weighing 25 g purchased from Samtaco Co. was bred with five mice per cage and the cage was kept with following condition maintaining the temperature of 22±2° C. and the relative humidity of […] under the regularly controlled light/dark condition with an interval of 12 hours.
Synthetic beta amyloid 1-42 (BACHEM) was dissolved in DMSO in order to be 250 μm solution and diluted with PBS to […] and aggregated at 37° C. for four days (Passive Avoidance test) or six days (Y maze test).
Aggregated beta amyloid 1-42 was administrated into the mice according to the procedure disclosed in the literature (Lausen & Belknap, J. Pharmacol. Methods, 16 pp 355-357, 1986).
[…] beta amyloid 1-42 was administrated into the 2.4 mm depth of bregma region with 50 μl of Hamilton micro-syringe equipped with 26-gauge needle. The behavior tests were divided into Y maze test and PA (passive avoidance) test after the beta amyloid administration. […]
During the first acquisition trial, each mouse was placed in the lighted compartment; as soon as they entered the dark compartment, the door was closed, and they received an electric shock through the grid floor (0.6 Ma, 3 s). […] 24 hours after the training trial, the mice were again placed in the lighted compartment and the time until they re-entered the dark compartment was measured (step-through latency). […]

A 42 = experiment: ELISA of beta-amyloid in brain of transgenic mice (A 42); assay type: in vivo, mouse; conditions: APPswe mice treated for 4 months
Experimental: 13 months old dementia model male mice expressing APPswe was used in the experiment and the mice was divided into two groups, i.e., control group consisting of 2 mice and test groups consisting of 4 mice. Each mouse had been fed with the feed mixed with 3 mg of compound IIb everyday for 4 months.
At the end of behavior test, the brain of mouse was delivered and the left hemisphere was frozen to be used as a cryo-section material. The remaining right hemisphere was used to measure the formation of beta-amyloid according to the procedure disclosed in the literature (J. Neurosci, 21(12), pp 4183-4187, 2001). […]
The amount of beta-amyloid in the brains of mice was determined by […] ELISA method according to the manual provided from Biosource Co and ELISA kit (KHB 3482, Biosource Co.) was used in the experiment. […] The level of color reaction was determined at 450 nm using by spectrophotometer and the absolute amount of beta-amyloid in the samples was transformed by comparing with standard value. The brain of the mice treated with the compound 18b for 4 months was delivered and the amount of beta-amyloid in supernatant obtained from the dissolved brain tissue was determined according to ELISA method.

beta amyloid plaque = experiment: Congo Red staining of beta amyloid plaque in brain sections of transgenic mice; assay type: in vivo, mouse; conditions: FIG. 14

COCCCc1ccc2oc(-c3ccc(OC)c(OC)c3)cc2c1 [Compound 18b, 2-(3,4-dimethoxy-phenyl)-5-(3-methoxy-propyl)-benzofuran]
inhibitory effect on the aggregation of beta amyloid (beta amyloid 1-42): most potent inhibitory effect
recovering effect on memory learning damaged by beta-amyloid (passive avoidance, step-through latency) ([1]; mice, oral, three days, FIG. 4): potent recovering effect
effect on the memory learning capacity (passive avoidance), best dose group ([1]; treatment group with more than 100 mg/kg, FIG. 5): most excellent effect
change of the amount of A 42 in brain (ELISA) (A 42): no difference
numbers, size, and area of plaque in brain (beta amyloid plaque): significantly reduced
